Measured values reported in ChEMBL document CHEMBL5136963 (RSC Med Chem, 2021).
The source made the active and inactive calls. The calls are words filed in the database; no cut-off is given here.

What was measured:
[1] = target: Norepinephrine transporter (Rattus norvegicus, UniProt Q9WTR4); experiment: Displacement of [3H]-nisoxetine from NET in Sprague-Dawley rat brain prefrontal cortex incubated for 180 mins by radioligand binding assay; assay type: tissue-based
[2] = target: Sodium-dependent dopamine transporter (Rattus norvegicus, UniProt P23977); experiment: Displacement of [3H]-WIN 3542875 from DAT in Sprague-Dawley rat brain striatum incubated for 120 mins by radioligand binding assay; assay type: tissue-based
[3] = target: Sodium-dependent serotonin transporter (Rattus norvegicus, UniProt P31652); experiment: Displacement of [3H]-citalopram from SERT in Sprague-Dawley rat brainstem incubated for 60 mins by radioligand binding assay; assay type: tissue-based
Rattus norvegicus [4] = species on record: Rattus norvegicus; experiment: Selectivity index, ratio of Ki for displacement of [3H]-citalopram from SERT in Sprague-Dawley rat brainstem to Ki for Displacement of [3H]-nisoxetine from NET in Sprague-Dawley rat brain prefrontal cortex
Rattus norvegicus [5] = species on record: Rattus norvegicus; experiment: Selectivity index, ratio of Ki for Displacement of [3H]-WIN 3542875 from DAT in Sprague-Dawley rat brain striatum to Ki for Displacement of [3H]-nisoxetine from NET in Sprague-Dawley rat brain prefrontal cortex
[6] = target: Sodium-dependent noradrenaline transporter (Homo sapiens) (UniProt P23975); experiment: Binding affinity to human NET expressed in HEK293 cells assessed as fluorescence increase at plasma membrane at 1 to 10 nM incubated for 10 mins by laser scanning microscopy; details: dose 1-10 nM, DDE = dose-dependent effect
[7] = target: Sodium-dependent noradrenaline transporter (Homo sapiens) (UniProt P23975); experiment: Binding affinity to YFP-tagged human NET expressed in HEK293 cells assessed as fluorescence increase at plasma membrane at 10 nM incubated for 1 to 20 mins by laser scanning microscopy; details: time 1-20 min, TDE = time-dependent effect
[8] = target: Sodium-dependent serotonin transporter (Homo sapiens) (UniProt P31645); experiment: Binding affinity to human SERT expressed in HEK293 cells at 10 nM incubated for 20 mins by laser scanning microscopy; assay type: cell-based
Chain of Sodium-dependent serotonin transporter (Homo sapiens) (P31645 whole entry, looked up): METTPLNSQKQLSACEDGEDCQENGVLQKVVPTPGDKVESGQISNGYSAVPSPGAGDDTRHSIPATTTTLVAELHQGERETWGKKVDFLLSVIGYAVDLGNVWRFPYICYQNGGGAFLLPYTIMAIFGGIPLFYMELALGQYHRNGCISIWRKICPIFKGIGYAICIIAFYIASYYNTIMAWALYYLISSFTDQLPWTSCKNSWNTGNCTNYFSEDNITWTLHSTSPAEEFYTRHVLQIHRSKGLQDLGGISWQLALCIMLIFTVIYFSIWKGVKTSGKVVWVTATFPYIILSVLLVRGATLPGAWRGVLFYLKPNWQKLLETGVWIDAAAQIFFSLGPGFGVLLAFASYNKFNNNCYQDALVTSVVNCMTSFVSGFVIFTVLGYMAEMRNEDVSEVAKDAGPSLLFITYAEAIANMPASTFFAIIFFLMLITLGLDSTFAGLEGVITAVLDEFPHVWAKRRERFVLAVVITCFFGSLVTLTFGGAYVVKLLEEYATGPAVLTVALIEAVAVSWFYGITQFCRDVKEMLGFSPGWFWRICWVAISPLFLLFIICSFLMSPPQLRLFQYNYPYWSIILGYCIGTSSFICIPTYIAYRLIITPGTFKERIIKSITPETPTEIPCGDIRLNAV

Chain of Sodium-dependent serotonin transporter (P31652 whole entry): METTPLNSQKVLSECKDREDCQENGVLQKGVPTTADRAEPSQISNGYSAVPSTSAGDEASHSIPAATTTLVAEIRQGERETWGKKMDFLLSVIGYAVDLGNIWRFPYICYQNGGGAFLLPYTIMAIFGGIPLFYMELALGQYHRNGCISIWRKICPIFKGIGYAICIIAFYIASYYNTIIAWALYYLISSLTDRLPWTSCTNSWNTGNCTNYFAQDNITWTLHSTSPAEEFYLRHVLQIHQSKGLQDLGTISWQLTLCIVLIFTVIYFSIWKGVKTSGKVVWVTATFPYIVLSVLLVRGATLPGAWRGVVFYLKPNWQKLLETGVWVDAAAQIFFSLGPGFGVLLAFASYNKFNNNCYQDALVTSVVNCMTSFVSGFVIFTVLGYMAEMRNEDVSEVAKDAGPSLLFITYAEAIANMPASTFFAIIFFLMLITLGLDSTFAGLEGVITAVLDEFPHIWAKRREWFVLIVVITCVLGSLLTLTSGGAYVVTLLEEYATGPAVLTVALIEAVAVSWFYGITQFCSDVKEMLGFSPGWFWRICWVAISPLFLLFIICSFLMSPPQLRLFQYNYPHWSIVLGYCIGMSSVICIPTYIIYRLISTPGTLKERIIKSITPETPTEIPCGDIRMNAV
Chain of Sodium-dependent dopamine transporter (P23977 whole entry): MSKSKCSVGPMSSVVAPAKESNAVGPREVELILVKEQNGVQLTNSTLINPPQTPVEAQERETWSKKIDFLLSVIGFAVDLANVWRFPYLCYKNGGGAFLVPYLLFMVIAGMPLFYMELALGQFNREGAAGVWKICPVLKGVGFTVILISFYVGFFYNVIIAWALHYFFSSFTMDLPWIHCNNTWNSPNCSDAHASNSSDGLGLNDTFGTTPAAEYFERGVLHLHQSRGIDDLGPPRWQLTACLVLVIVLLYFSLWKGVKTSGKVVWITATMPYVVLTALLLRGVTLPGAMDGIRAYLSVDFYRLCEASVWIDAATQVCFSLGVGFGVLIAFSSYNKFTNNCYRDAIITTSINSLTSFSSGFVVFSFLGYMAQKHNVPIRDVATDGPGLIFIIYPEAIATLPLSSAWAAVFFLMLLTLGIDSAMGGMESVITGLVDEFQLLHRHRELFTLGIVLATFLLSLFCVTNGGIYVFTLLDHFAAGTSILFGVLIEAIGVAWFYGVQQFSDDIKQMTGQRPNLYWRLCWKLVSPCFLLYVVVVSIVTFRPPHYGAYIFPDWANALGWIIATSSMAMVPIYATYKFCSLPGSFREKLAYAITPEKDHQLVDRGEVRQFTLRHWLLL
Chain of Norepinephrine transporter (Q9WTR4 whole entry): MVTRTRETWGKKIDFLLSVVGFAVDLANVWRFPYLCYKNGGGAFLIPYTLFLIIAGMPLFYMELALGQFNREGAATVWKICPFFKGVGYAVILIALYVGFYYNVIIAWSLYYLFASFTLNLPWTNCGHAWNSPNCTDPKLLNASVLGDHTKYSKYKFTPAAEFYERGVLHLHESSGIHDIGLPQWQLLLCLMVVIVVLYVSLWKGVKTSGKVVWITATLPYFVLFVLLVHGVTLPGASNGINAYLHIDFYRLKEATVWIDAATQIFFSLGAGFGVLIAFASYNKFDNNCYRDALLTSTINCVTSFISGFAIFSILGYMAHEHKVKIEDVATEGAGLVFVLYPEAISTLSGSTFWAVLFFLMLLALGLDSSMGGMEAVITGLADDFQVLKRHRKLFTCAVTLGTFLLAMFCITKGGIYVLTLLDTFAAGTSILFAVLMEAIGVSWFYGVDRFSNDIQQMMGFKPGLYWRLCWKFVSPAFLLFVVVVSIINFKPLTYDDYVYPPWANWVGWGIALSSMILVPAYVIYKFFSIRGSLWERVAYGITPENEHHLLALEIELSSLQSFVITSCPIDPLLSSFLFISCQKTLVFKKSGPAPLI
Chain of Sodium-dependent noradrenaline transporter (Homo sapiens) (P23975 whole entry): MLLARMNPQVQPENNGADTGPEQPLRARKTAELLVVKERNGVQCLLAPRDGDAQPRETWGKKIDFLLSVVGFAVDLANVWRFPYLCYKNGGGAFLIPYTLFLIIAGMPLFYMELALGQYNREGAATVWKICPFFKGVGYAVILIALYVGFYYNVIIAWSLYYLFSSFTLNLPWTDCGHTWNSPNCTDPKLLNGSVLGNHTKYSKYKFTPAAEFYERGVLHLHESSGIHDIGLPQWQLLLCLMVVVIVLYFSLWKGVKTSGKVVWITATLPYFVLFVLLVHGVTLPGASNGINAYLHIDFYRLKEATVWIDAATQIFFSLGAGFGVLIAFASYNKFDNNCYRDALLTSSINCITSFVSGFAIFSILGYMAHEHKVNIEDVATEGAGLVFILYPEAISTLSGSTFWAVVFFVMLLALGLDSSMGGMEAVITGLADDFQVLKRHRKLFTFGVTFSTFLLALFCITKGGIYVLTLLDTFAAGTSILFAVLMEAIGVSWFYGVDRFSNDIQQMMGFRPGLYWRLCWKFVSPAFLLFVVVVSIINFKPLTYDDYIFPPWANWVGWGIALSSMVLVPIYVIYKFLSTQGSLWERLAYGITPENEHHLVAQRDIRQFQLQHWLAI

Row | SMILES | Ki [1] | Ki [2] | Ki [3] | Ratio Ki (Rattus norvegicus [4]) | Ratio Ki (Rattus norvegicus [5]) | Activity [6] | Activity [7] | Activity [8]
1 | CNCCCC1(c2ccccc2)OC(C)(C)c2ccccc21 (stereo not given) [TALOPRAM] | 4.5 nM | > 10000 nM | 795 nM | – | – | – | – | –
2 | CCN(CC)c1ccc2c(-c3ccc(S(=O)(=O)NCCCCCC(=O)NCCN4C5CCC4[C@@H](C(=O)OC)[C@@H](c4ccc(Cl)c(Cl)c4)C5)cc3S(=O)(=O)[O-])c3ccc(=[N+](CC)CC)cc-3oc2c1 (stereo not given in full) | 79 nM | 17 nM | 16 nM | – | – | – | – | –

Second part, the compound after the results:

Row | Ki [1] | Ki [2] | Ki [3] | Ratio Ki (Rattus norvegicus [4]) | Ratio Ki (Rattus norvegicus [5]) | Activity [6] | Activity [7] | Activity [8] | SMILES
3 | > 10000 nM | 964 nM | 1140 nM | – | – | – | – | – | CCN(CC)c1ccc2c(-c3ccc(S(=O)(=O)NCCCCCC(=O)NCc4ccc5c(c4)C(C)(C)OC5(CCCNC)c4ccccc4)cc3S(=O)(=O)[O-])c3ccc(=[N+](CC)CC)cc-3oc2c1 (stereo not given)
4 | 43 nM | 1540 nM | 785 nM | 18 | 36 | Dde | Tde | Active | CCN(CC)c1ccc2c(-c3ccc(S(=O)(=O)NCCCCCC(=O)NCc4cccc(C(CCNC)Oc5ccccc5OC)c4)cc3S(=O)(=O)[O-])c3ccc(=[N+](CC)CC)cc-3oc2c1 (stereo not given)
5 | > 10000 nM | 4870 nM | > 10000 nM | – | – | – | – | – | CCN(CC)c1ccc2c(-c3ccc(S(=O)(=O)NCCCCCC(=O)NCCNCCCC4(c5ccccc5)OC(C)(C)c5ccccc54)cc3S(=O)(=O)[O-])c3ccc(=[N+](CC)CC)cc-3oc2c1 (stereo not given)
